The values below are quoted from earlier work in US20220206017A1, “AEROBIC GLYCOLYSIS AND HYPERMETABOLIC STATES” (priority 2022, published 2022).

In general, Ki refers to the dissociation constant of the complex between target and ligand, obtained from inhibition or displacement.

One series addresses T1, hexokinase II (Homo sapiens, UniProt P52789).
T1 sequence (P52789 1-917): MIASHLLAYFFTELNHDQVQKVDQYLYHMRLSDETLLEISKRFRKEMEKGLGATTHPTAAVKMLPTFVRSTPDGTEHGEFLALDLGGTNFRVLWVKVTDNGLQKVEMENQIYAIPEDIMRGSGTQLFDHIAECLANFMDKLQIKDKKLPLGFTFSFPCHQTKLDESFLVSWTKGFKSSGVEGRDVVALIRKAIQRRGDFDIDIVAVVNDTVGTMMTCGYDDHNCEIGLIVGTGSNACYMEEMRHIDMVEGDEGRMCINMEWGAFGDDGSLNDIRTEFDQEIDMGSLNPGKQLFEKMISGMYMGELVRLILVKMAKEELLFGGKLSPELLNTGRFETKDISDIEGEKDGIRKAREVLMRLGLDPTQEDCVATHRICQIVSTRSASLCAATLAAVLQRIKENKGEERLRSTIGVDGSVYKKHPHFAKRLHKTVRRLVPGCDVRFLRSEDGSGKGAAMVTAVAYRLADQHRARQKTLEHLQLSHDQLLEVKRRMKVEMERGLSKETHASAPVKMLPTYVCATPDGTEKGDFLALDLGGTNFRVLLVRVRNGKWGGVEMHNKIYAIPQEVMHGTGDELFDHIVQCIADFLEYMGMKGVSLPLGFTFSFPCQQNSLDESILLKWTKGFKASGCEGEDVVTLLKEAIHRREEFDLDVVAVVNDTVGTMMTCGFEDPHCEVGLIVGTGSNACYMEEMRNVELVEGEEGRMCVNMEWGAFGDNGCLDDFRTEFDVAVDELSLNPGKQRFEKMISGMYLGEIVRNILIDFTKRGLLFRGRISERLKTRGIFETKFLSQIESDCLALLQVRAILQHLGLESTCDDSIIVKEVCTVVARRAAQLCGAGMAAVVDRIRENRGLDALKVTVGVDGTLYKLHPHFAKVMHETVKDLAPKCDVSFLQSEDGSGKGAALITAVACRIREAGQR
Particulars: inhibition of hexokinase II; reported value.

Another series relates to Red blood cells (RBC). Conditions: monotherapy at known clinical doses.
The conditions of series [1]: 3BP and DCA intravenous; 2DG oral.
The next series relates to melanoma. Conditions: in vivo; compared to L-Lactic Acid Dimer (LLAD) and phosphate buffered saline control; FIG. 3, ref [4].

For the compound `O=CC[C@@H](O)[C@H](O)[C@H](O)CO` [2DG, 2-Deoxy-D-Glucose], at hexokinase II, the inhibition constant Ki was 2900 µM. The RBC hemolysis result in the series on Red blood cells (RBC) was “does not cause RBC hemolysis”. Further, in series [1], the “side effects of administration / clinical use” value is given as “generally well tolerated”.
With `O=C(O)C(=O)CBr` [3BP, 3-Bromopyruvate], in series [1], the “side effects of administration / clinical use” value is “pain and phlebitis”.
In the case of `O=C(O)C(Cl)Cl` [DCA, Dichloroacetate], the “side effects of administration / clinical use” value in series [1] was “neurotoxicity”.
For `C[C@@H](O)C(=O)O[C@H](C)C(=O)O` [DLAD, D-Lactic Acid Dimer], in the series on melanoma, the “melanoma cytotoxicity as measured by Ki-67 nuclei” value is given as “impressive melanoma cytotoxicity”.
